Article PMC10933920, “Synthesis and Anti-Inflammatory Activity of Ferulic Acid-Sesquiterpene Lactone Hybrids” (Molecules, 2024)
Converted amounts (≈) assume the structure as drawn. “Also recorded” adds a separate entry of the source.

Experiments:
RAW264.7 cells = experiment: CCK-8 cell viability (cytotoxicity) assay; type: cell-based, Mouse; conditions: for IC50: RAW264.7 cells, CCK-8, 24 h incubation, means of three independent experiments
Protocol: CCK-8 Cell Proliferation was used to confirm the non-cytotoxic dose of those derivatives in RAW264.7 cells. However, IC50 values of those compounds show visible difference in vitro (Table 1). Considering the safety of compound 6 in RAW264.7 cells, a follow-up experiment was carried out at the concentration of 2 μM.
The toxicity of those compounds was determined by the CCK-8 assay. RAW264.7 cells were seeded in a 96-well plate at a density of 2 × 10^5/mL and a volume of 100 μL/well. After incubation for 12 h at 37 °C, the cells were then incubated with compounds at concentrations of 1.25, 2.5, 5, 10, 20, 40 and 80 μM for 24 h, followed by the addition of 10 μL CCK-8 solution to each well, and the plates were further incubated for 2 h at 37 °C. The absorbance at a wavelength of 450 nm was measured using a microplate reader (Bio-Rad Laboratories, Inc., Hercules, CA, USA).

[1] = system: LPS-induced expression of IL-1β, IL-6 and iNOS in RAW264.7 cells; experiment: qRT-PCR of pro-inflammatory cytokine gene expression after LPS stimulation; type: cell-based, Mouse; conditions: RAW264.7 cells pre-treated 2 h, LPS 1 μg/mL 6 h, RT-PCR, 2 μM
Text: Inflammatory factors, including TNF-α, IL-1β, and IL-6, are involved in and accelerate inflammatory responses during inflammatory progression. In addition, iNOS (Nitric oxide synthase)-derived monocytes contribute to macrophage recruitment in the lung, and pulmonary-derived iNOS is detrimental during acute lung injury. Moreover, observations indicate that inhibiting iNOS can reduce inflammation in the early stages of the bleomycin model of acute lung injury. Therefore, the effective suppression of inflammation is considered an effective marker for the treatment of inflammation. To establish the efficacy of those compounds suppressing inflammatory procession, we tested pro-inflammatory cytokines that are released from the RAW264.7 cells upon LPS stimulation.
Total RNA was isolated using TRIzol reagent (Takara, Ōtsu-shi, Japan) and then transcribed into cDNA using a transcriptor cDNA synthesis kit (TransGen Biotech, Beijing, China) according to the manufacturer’s instructions. Quantitative real-time PCR was performed with TransStart® Green qPCR SuperMix (TransGen Biotech, China). The conditions for the real-time PCR reaction were as follows: 94 °C, 30 s; 94 °C, 5 s; 60 °C, 30 s; 40 cycles. The primers for this research are listed in Supplementary Material Table S1.
Figure 2 Anti-inflammation of 1–6 in RAW264.7 Cells. Expression of proinflammatory cytokines in RAW264.7 cells use RT-PCR. Cells (1 × 10^6 cells/well) were seeded into 6-well plates and then pro-treated with 1–6 for 2 h. Cells were then challenged with LPS (1 μg/mL) or medium alone for 6 h and Total RNA was extracted from cells with Trizol reagent. TNF-α: tumor necrosis factor-α; IL-1β:Interleukin-1β; L-6: Interleukin-6. Data were analyzed by One-Way ANOVA. *: p < 0.05; **: p < 0.01. ns: no significance.

[2] = Aqueous solubility measurement; type: physicochemical; conditions: for solubility: thermodynamic from solid, deionized water, pH = 7.0, at least in duplicate, read-out: Aqueous Solubility IC50; for water solubility (in words): pH 7.0
Protocol: PTL, MCL and compounds 1–6 (0.1, 1, 10 mg) were dissolved in deionized water (pH = 7.0) until the solution was clear. The assays were measured at least in duplicate.

[3] = system: TNF-α and IL-6 release from LPS-stimulated RAW264.7 cells; experiment: ELISA of pro-inflammatory cytokine protein levels in culture supernatant; type: cell-based, Mouse; conditions: RAW264.7 cells pre-treated 6 h, LPS 24 h
[4] = system: BLM-induced acute lung injury in C57BL/6J mice; experiment: Bleomycin-induced acute lung injury model; type: in vivo; conditions: compound 6 10 mg/kg i.p. daily for 14 days
Protocol: To further confirm the anti-inflammation effect of compound 6 in vivo, we made the acute-lung-injury model in C57/6j mice using bleomycin. […] To further investigate the protective effect of 6 by BLM-induced ALI, the pathological changes in lung tissues were studied (Figure 5).
C57BL/6J mice (male) were purchased from Vital River Laboratories (Beijing, China). All procedures were conducted according to the Nankai University Guidelines on Animal Care, and the experimental protocol was approved by the Institutional Animal Protection Committee of the Nankai University (Tianjing, China, NO. 2022-SYDWLL-000342). Animals were sheltered under standard conditions with food and water provided ad libitum. Experiments were conducted on 8-week-old male mice, randomly divided into 4 groups: Control (Con), ALI (bleomycin), Dex (dexamethasone) and compound 6. For bleomycin-induced lung injury, mice were sedated, and a single dose of intratracheal bleomycin (4 mg/kg; Selleckchem, Houston, TX, USA) in sterile PBS. 6 was administered daily for 14 days via intraperitoneal injections (i.p) (100 μL/mouse of […] 6 in PBS). Dexamethasone (2 mg/kg) was administered orally. The mice were monitored and their weight was measured daily. After 14 days, the mice were killed with anesthetic overdose and exsanguinated by cutting the abdominal aorta before the collection of lungs.
Body weight variations were calculated from the measured weights at each time point (days 1–14), including before the sacrifice of the mice reaching the endpoints. To avoid a potential bias by studying the animals with the better outcomes, animals reaching endpoints were included in the calculation of the weight variation and survival rates.
Figure 4 Effect of compound 6 on body weight and survival after bleomycin-induced acute lung injury in mice. After bleomycin (4 mg/kg, 25 μL), mice were treated (i.p) daily with compound 6 (10 mg/kg, 100 μL) for 14 days. Body weight variations ((A), n = 12) and percentage (%) of mouse survival ((B), n = 5–12) were compared between the four groups. (Values are means ± SEM, ** p < 0.01). […]

[5] = Release of prodrug into active drug in HEPES buffer; type: physicochemical; conditions: HEPES buffer pH 7.4, 37 °C, HPLC; read-out: T1/2 (conversion of prodrug 6 into compound 3) (converted)
Protocol: The Michael addition reaction has emerged as an effective synthetic strategy to improve the water solubility and pharmaceutical efficacy of active drug compounds [34]. […] In addition, the use of Michael addition products can also serve to modulate the release rate of active drugs, thereby enabling better control over the pharmacological effects of such compounds. Thus, the experiment of converting the prodrug compound (6) into compound (3) was evaluated in a HEPES buffer solution with a pH of 7.4. Compound 6 rapidly releases compound 3 under these conditions. (Figure 6, T1/2 = 2 h).
A total of 10 mg of compound 6 was dissolved in 10 mL MeCN. A 0.5 mL volume of compound 6 solution was placed in 49.5 mL of HEPES at pH 7.4. The tubes were then incubated in a bath incubator at 37 °C. Samples were removed after 10 s, and the concentration of compound 6 and 3 was analyzed by HPLC.
Figure 6 The stability of compound 6 in pH7.4 HEPES buffer.

[6] = parameters: method as in PMID 30208745; conditions: cited from earlier work

Row | solubility [2] [µg/mL] | Compound | IC50 (RAW264.7 cells; Mus musculus, RAW264.7, 24 h) [µM] | gene expression of pro-inflammatory cytokines (IL-1β, IL-6, iNOS) [1] | other results
1 | < 10 | C=C1C(=O)O[C@@H]2C3C(=C(C)CC[C@@H]12)CC[C@@]3(C)OC(=O)/C=C/c1ccc(O)c(OC)c1 (stereo partly drawn) [Compound 1, (3aS,9R,9bS)-6,9-dimethyl-3-methylene-2-oxo-2,3,3a,4,5,7,8,9,9a,9b-decahydroazuleno[4,5-b]furan-9-yl (E)-3-(4-hydroxy-3-methoxyphenyl)acrylate] | 6.14 ± 0.09 | reduce the gene expression levels of IL-1β, IL-6 and iNOS significantly; also recorded: comparable activities | 
2 | < 10 | C=C1C(=O)OC2C1CCC(COC(=O)C=Cc1ccc(O)c(OC)c1)=CCCC1(C)OC21 [Compound 3, ((1aR,7aS,10aS,10bS,E)-1a-methyl-8-methylene-9-oxo-1a,2,3,6,7,7a,8,9,10a,10b-decahydrooxireno[2′,3′:9,10]cyclodeca[1,2-b]furan-5-yl)methyl (E)-3-(4-hydroxy-3-methoxyphenyl)acrylate] | 3.04 ± 0.08 | reduce the gene expression levels of IL-1β, IL-6 and iNOS significantly; also recorded: comparable activities | melting point: 96 to 98 °C
3 | 50 (≈ 201 µM) | C=C1C(=O)O[C@H]2[C@H]1CCC(C)=C1CC[C@@](C)(O)[C@@H]12 [MCL, micheliolide, reference compound] | 9.03 ± 0.16 |  | 
4 | 50 (≈ 201 µM) | C=C1C(=O)O[C@H]2[C@H]1CC/C(C)=C/CC[C@@]1(C)O[C@@H]21 [PTL, Parthenolide, reference compound] | 5.35 ± 0.06 |  | 

Second part, the compound before the results:

Row | Compound | solubility [2] [µg/mL] | IC50 (RAW264.7 cells; Mus musculus, RAW264.7, 24 h) [µM] | gene expression of pro-inflammatory cytokines (IL-1β, IL-6, iNOS) [1] | other results
5 | COc1cc(/C=C/C(=O)O[C@]2(C)CCC3=C(C)CC[C@@H]4[C@H](OC(=O)[C@H]4CN(C)C)[C@H]32)ccc1O [Compound 2, (3R,3aS,9R,9aS,9bS)-3-((dimethylamino)methyl)-6,9-dimethyl-2-oxo-2,3,3a,4,5,7,8,9,9a,9b-decahydroazuleno[4,5-b]furan-9-yl (E)-3-(4-hydroxy-3-methoxyphenyl)acrylate] | < 10 |  | decreased activity compared with compound 1 | IC50 (RAW264.7 cells): 19.6 ± 0.21 µM
6 | COc1cc(C=CC(=O)NCC2=CCCC3(C)OC3C3OC(=O)C(CN(C)C)C3CC2)ccc1O [Compound 4, (E)-N-(((1aR,7aS,8R,10aS,10bS,E)-8-((dimethylamino)methyl)-1a-methyl-9-oxo-1a,2,3,6,7,7a,8,9,10a,10b-decahydrooxireno[2′,3′:9,10]cyclodeca[1,2-b]furan-5-yl)methyl)-3-(4-hydroxy-3-methoxyphenyl)acrylamide] | < 10 | 38.4 ± 1.14 | neither the amide derivative of FA-PTL hybrid 4 or 5 (the prodrug of 2 containing citric acid) showed anti-inflammation activities | melting point: 132 to 134 °C
7 | COc1cc(/C=C/C(=O)O[C@]2(C)CCC3=C(C)CC[C@@H]4[C@H](OC(=O)[C@H]4CN(C)C)[C@H]32)ccc1O.O=C(O)CC(O)(CC(=O)O)C(=O)O [Compound 5, (3R,3aS,9R,9aS,9bS)-3-((dimethylamino)methyl)-6,9-dimethyl-2-oxo-2,3,3a,4,5,7,8,9,9a,9b-decahydroazuleno[4,5-b]furan-9-yl (E)-3-(4-hydroxy-3-methoxyphenyl)acrylate 2-hydroxypropane-1,2,3-tricarboxylate] | 2500 | 28.8 ± 0.21 | neither the amide derivative of FA-PTL hybrid 4 or 5 (the prodrug of 2 containing citric acid) showed anti-inflammation activities | water solubility (in words) [2]: significantly improved water solubility
8 | COc1cc(C=CC(=O)OCC2=CCCC3(C)OC3C3OC(=O)C(CN(C)C)C3CC2)ccc1O [Compound 6, ((1aR,7aS,8R,10aS,10bS,E)-8-((dimethylamino)methyl)-1a-methyl-9-oxo-1a,2,3,6,7,7a,8,9,10a,10b-decahydrooxireno[2′,3′:9,10]cyclodeca[1,2-b]furan-5-yl)methyl (E)-3-(4-hydroxy-3-methoxyphenyl)acrylate 2-hydroxypropane-1,2,3-tricarboxylate] | 2500 (≈ 5150 µM) | 6.95 ± 1.09 | comparable activities; also recorded: could significantly reduce inflammation of RAW264.7 cells induced by LPS | decline in cytotoxic effect compared to parent compound 3 (RAW264.7 cells; RAW264.7 cell line, versus compound 3): 2 fold; protein levels / release of pro-inflammatory cytokines (TNF-α and) [3]: could also inhibit the release of pro-inflammatory cytokines in vitro; survival rate [4]: did not reverse the survival rate; acute lung injury / lung pathology (H&E: inflammatory cell infiltration, edema, alveolar structure) ([4]; 10 mg/kg): reduced inflammatory cell infiltration and edema in lung tissue of mice, and improved alveolar structure; also recorded: ameliorated inflammatory cell infiltration and edema in lung tissue; also recorded: could significantly decrease the acute lung injury induced by bleomycin; body weight loss ([4]; 10 mg/kg): prevented the weight loss significantly; half-life at 10 µg/mL [5]: 2 h; water solubility (in words) [2]: outstanding water solubility; also recorded: significantly improved water solubility; also recorded: good water solubility; also recorded: more soluble than the reference compound 3
9 | C/C1=C\CC[C@@]2(C)O[C@@H]2[C@H]2OC(=O)[C@H](CN(C)C)[C@@H]2CC1 [DMAPT] |  |  |  | solubility relative to parent compound parthenolide [6]: more than 1000 times
10 | COc1cc(/C=C/C(=O)O)ccc1O [FA, Ferulic acid] |  | > 100 |  | 
